Measured values: patent publication EP2119770B1, “Production of alpha-oxyfunctionalized carbonyl compounds” (priority 2008, dated 2009)

Columns and labels:
Format in all cases: biochemical
Gox1615 = molecular target: T1, Gox1615 (Gluconobacter oxydans, UniProt Q5FQJ0); experiment: Enzyme activity assay (rate of NAD(P)H decrease at 340 nm), Gox1615; details: Tab. 5, Gox1615; cofactor NADPH; 10 mM substrate, pH 7.0, 30 °C
T1 sequence (Q5FQJ0 1-332): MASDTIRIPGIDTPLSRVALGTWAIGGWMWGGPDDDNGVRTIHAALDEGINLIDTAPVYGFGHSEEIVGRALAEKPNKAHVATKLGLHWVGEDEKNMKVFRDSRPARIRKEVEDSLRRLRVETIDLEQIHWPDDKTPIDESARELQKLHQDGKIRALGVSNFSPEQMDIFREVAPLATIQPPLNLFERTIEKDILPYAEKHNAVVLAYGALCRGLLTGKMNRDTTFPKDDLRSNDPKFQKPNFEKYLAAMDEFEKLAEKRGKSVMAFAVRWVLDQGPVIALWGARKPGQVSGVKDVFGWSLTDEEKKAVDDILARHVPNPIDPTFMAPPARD
Procedure: (§1) Measurment of enzyme activity: NADPH-dependent alpha-ketocarbonyl reductases were assayed by a routine method used for NAD(P)-linked enzymes by recording the rate of decrease of NADPH at 340 nm (ε = 6.22 mM^-1 x cm^-1)) with substrates at 30 °C. The reaction mixture (1 ml) for reduction of alpha-ketocarbonyl substrates contained 10 mM substrate, 40 mM potassium phosphate buffer pH 7.0, 0.025 mM NAD(P)H , and the enzyme. Reactions were induced by addition of enzyme or substrate. One unit of enzyme activity was defined as the amount of enzyme catalyzing the conversion of 1 µmol of pyridine nucleotide per min at 30 °C.
(§2) NADPH-dependent α-ketocarbonyl reductases were assayed by a routine method used for NAD(P)-linked enzymes by recording the rate of decrease of NADPH at 340 nm (ε = 6.22 mM^-1.cm^-1) with substrates at 30 °C. The reaction mixture (1 ml) for reduction of alpha-ketocarbonyl substrates contained 10 mM substrate, 40 mM potassium phosphate buffer pH 7.0, 0.025 mM NADPH , and the enzyme. Reactions were induced by addition of enzyme or substrate. One unit of enzyme activity was defined as the amount of enzyme catalyzing the conversion of 1 µmol of pyridine nucleotide per min at 30 °C.
(§3) For each enzyme (Gox0313, Gox0502, Gox0644, Gox0646, Gox1615, Gox2107, and Gox2684 respectively), fresh enzyme preparations were used to validate the substrate spectrum and the kinetic activity. […] Purified NAD(P)-dependent oxidoreductases were assayed at 30 °C by a routine method used for NAD(P)-linked enzymes by recording the rate of decrease of NAD(P)H at 340 nm (ε = […]) with substrates capable of reduction reactions. The standard reaction mixture (1 ml) for the reduction reactions of substrates contained 10 mM substrate, 40 mM potassium phosphate buffer (K-phosphate buffer) pH 7.0, 0.05 mM NAD(P)H, and the enzyme unless otherwise noted. Reactions were induced by addition of enzyme or substrate. One unit of enzyme activity was defined as the amount of enzyme catalyzing the conversion of 1 µmol of pyridine nucleotide per min at 30 °C. Measurement of the protein content was performed by the method of Bradford in Anal. Biochem. 72:248-254 (1976). Table 3: Summary of enzymatic activities with α-diketones, α-ketoaldehydes and /or α-ketoesters

Gox0313 = molecular target: T2, Gox0313 (Gluconobacter oxydans, UniProt Q5FU50); experiment: Enzyme activity assay (rate of NAD(P)H decrease at 340 nm), Gox0313; details: Tab. 6, Gox0313; substrate reduction, cofactor NADH; 10 mM substrate, pH 7.0, 30 °C
T2 sequence (Q5FU50 1-343): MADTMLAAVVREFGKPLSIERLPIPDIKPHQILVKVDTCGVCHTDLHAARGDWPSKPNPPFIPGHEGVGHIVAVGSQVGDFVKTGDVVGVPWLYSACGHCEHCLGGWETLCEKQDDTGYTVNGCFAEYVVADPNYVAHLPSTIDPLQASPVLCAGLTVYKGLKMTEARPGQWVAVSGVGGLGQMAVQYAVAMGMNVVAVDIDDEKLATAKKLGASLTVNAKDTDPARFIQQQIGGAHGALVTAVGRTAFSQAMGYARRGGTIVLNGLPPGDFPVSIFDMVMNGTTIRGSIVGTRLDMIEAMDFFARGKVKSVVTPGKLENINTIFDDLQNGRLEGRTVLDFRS
Procedure: as §1, §2, §3

Gox0644 = Gox0644 (Gluconobacter oxydans, UniProt Q5FT75); experiment: Enzyme activity assay (rate of NAD(P)H decrease at 340 nm), Gox0644; details: for reduction by Gox0644 (result in words): NADPH; for Specific Activity: Tab. 4, Gox0644, cofactor NADPH, 10 mM substrate, pH 7.0, 30 °C
Procedure: (§4) Reactions were induced by addition of enzyme or substrate. One unit of enzyme activity was defined as the amount of enzyme catalyzing the conversion of 1 µmol of pyridine nucleotide per min at 30 °C.
as §4
For each enzyme (Gox0313, Gox0502, Gox0644, Gox0646, Gox1615, Gox2107, and Gox2684 respectively), fresh enzyme preparations were used to validate the substrate spectrum and the kinetic activity. […] Reactions were induced by addition of enzyme or substrate. One unit of enzyme activity was defined as the amount of enzyme catalyzing the conversion of 1 µmol of pyridine nucleotide per min at 30 °C. […] Table 3: Summary of enzymatic activities with α-diketones, α-ketoaldehydes and /or α-ketoesters

Gox2684 = molecular target: T3, Gox2684 (Gluconobacter oxydans, UniProt Q5HXK5); experiment: Enzyme activity assay (rate of NAD(P)H decrease at 340 nm), Gox2684; details: Tab. 8, GOX2684; cofactor NADPH; 10 mM substrate, pH 7.0, 30 °C
T3 sequence (Q5HXK5 1-357): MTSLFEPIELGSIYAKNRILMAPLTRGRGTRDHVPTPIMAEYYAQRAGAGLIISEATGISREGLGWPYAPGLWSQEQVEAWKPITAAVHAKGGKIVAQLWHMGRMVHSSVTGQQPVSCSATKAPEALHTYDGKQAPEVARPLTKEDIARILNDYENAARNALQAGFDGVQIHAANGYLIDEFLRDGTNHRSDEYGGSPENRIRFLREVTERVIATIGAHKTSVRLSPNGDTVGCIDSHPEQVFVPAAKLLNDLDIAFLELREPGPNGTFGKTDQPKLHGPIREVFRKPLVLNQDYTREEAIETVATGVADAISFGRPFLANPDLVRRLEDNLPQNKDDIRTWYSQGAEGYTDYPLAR
Procedure: as §1, §2, §3

Gox0502 = molecular target: T4, Gox0502 (Gluconobacter oxydans, UniProt Q5FTL6); experiment: Enzyme activity assay (rate of NAD(P)H decrease at 340 nm), Gox0502; parameters: Strep-tag II (N); made in house; host or cells: E. coli BL21 or E. coli DH5α (pASK-IBA5); details: Tab. 7, Gox0502; cofactor NADPH; 10 mM substrate, pH 7.0, 30 °C
T4 sequence (Q5FTL6 1-361): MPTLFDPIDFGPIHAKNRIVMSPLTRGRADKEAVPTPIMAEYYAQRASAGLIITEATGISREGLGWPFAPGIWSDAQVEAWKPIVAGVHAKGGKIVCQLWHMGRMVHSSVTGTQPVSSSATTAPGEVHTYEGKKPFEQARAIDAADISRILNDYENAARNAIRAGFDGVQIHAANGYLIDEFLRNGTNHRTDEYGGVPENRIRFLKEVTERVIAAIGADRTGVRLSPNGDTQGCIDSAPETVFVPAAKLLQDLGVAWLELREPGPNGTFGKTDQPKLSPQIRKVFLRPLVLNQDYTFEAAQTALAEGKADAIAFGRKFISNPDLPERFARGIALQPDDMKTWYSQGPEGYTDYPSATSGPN
Procedure: as §1, §2, §3

Gox2107 = Gox2107 (Gluconobacter oxydans, UniProt Q5FP53); experiment: Enzyme activity assay (rate of NAD(P)H decrease at 340 nm), Gox2107; details: for Specific Activity: Tab. 7, Gox2107, cofactor NADPH, 10 mM substrate, pH 7.0, 30 °C
Procedure: as §1, §2, §3

| Specific Activity (Gox1615) [U/mg] | Specific Activity (Gox0313) [U/mg] | Compound | other results |
| --- | --- | --- | --- |
|  |  | CC(C)=O [acetone] | reduction by Gox0644 (result in words) (Gox0644): not reduced |
| 15.1 | 8.9 | CCCCC=O [valeraldehyde] |  |
| 15.6 | 2.4 | CCCCCCCCCCCC=O [dodecanal] |  |
| 7.5 | 8.5 | CCCCCCCCCCC=O [undecylaldehyde] |  |
| 15.5 | 8.6 | CCCCCCC=O [heptanal] |  |
| 10.3 | 6.0 | CCCCCC=O [hexanal] |  |
|  |  | O=C1C=CCCC1 [2-cyclohexene-1-one] | Specific Activity (Gox0502): 9.8 U/mg; Specific Activity (Gox2107): 3.3 U/mg |
|  |  | CC(=O)CC(C)=O [acetylacetone] | reduction by Gox0644 (result in words) (Gox0644): not reduced |
| 0.8 |  | Cc1ccccc1C=O [o-toluylaldehyde] |  |
|  |  | C=CC(=O)CC [1-pentene-3-one] | Specific Activity (Gox0502): 6.1 U/mg; Specific Activity (Gox2107): 14.0 U/mg |
| 9.3 | 4.4 | CCCCCCCCC=O [Nonal] |  |
| 10.5 | 18.8 | CCCCCCCCCC=O [decanal] |  |
|  |  | N#CC1=C(C#N)C(=O)C(Cl)=C(Cl)C1=O [DDQ] | Specific Activity (Gox0502): < 0.1 U/mg; Specific Activity (Gox2107): 26.5 U/mg |
|  | 10.5 | CC(=O)C(C)O (centres unmarked) [acetoin] | reduction by Gox0644 (result in words) (Gox0644): not reduced |
| 12 |  | CC(C)CC=O [isovaleraldehyde] |  |
| 0.3 |  | CC(=O)C=CC(C)C [5-methyl-3-hexen-2-one] |  |
|  |  | C=C(C)[C@H]1CC=C(C)C(=O)C1 [(+)-Carvone] | Specific Activity (Gox0502): 8.0 U/mg; Specific Activity (Gox2107): < 0.1 U/mg |
| 0.5 | 1.5 | CC=CC(C)=O [3-penten-2-one] | Specific Activity (Gox0502): 3.6 U/mg; Specific Activities (Gox2684): 1.9 U/mg; Specific Activity (Gox2107): 1.9 U/mg |
|  |  | O=CC(=O)O [glyoxalate] | Specific Activity (Gox0644): 1.2 U/mg |
|  |  | CC1=CC(=O)c2ccccc2C1=O [2-methyl-1,4-naphthoquinone] | Specific Activity (Gox0502): 10 U/mg; Specific Activities (Gox2684): 6.8 U/mg; Specific Activity (Gox2107): 124.1 U/mg |
| 8.4 | 15.0 | CCC=O [propionaldehyde] |  |
|  |  | NC(=O)C1=CN([C@@H]2O[C@H](COP(=O)(O)OP(=O)(O)OC[C@H]3O[C@@H](n4cnc5c(N)ncnc54)[C@H](O)[C@@H]3O)[C@@H](O)[C@H]2O)C=CC1 [NADH] | decrease in activity with NADH (Gox2107; Gox2107, NADH compared with the preferred NADPH (data not shown)): 7.5 fold |
|  |  | O=C1C=C(O)C(=O)c2ccccc21 [2-hydroxy-1,4-naphthoquinone] | Specific Activity (Gox0502): 0.75 U/mg; Specific Activities (Gox2684): 0.7 U/mg; Specific Activity (Gox2107): 16.04 U/mg |
| 5.3 | 1.5 | CCCCCCCC=O [octanal] |  |
| 4.1 | 37.5 | O=CCO [glycolaldehyde] |  |
| 13.4 |  | CCCC(C)C=O (centres unmarked) [2-methylvaleraldehyde] |  |

| Compound | Specific Activity (Gox1615) [U/mg] | Specific Activity (Gox0313) [U/mg] | other results |
| --- | --- | --- | --- |
| Cc1ccc(C=O)cc1 [p-toluylaldehyde] | 2.3 | 3.3 |  |
| O=CC=O [glyoxal] | 5 |  | Specific Activity (Gox0644): 1.1 U/mg |
| mannose |  | 9.7 |  |
| O=C(C(=O)c1ccccc1)c1ccccc1 [benzil] |  | 0.1 | Specific Activity (Gox0644): 14.0 U/mg |
| O=CCCc1ccccc1 [hydrocinnamaldehyde] |  | 32.1 | Specific Activities (Gox2684): 1.9 U/mg |
| CCCC=O [butyraldehyde] | 14 | 8.5 |  |
| O=CC=Cc1ccccc1 [cinnamaldehyde] |  | 7.0 | Specific Activities (Gox2684): 0.4 U/mg |
| O=CC(O)CO (racemic) [DL-glyceraldehyde] | 19 | 1.2 |  |
| O=CCc1ccccc1 [phenylacetaldehyde] | 6.5 |  |  |
| O=CCCCC=O [glutaraldehyde] | 13.5 |  |  |
| Cc1cccc(C=O)c1 [m-toluylaldehyde] | 1.5 |  |  |
| O=Cc1ccccc1 [benzaldehyde] | 12.2 | 9.4 |  |
| CC=O [acetaldehyde] |  | 61.0 |  |
| glucose |  | 4.7 |  |
